From US20240002425A1, “NOVEL AMINOALKYL GLUCOSAMINIDE 4-PHOSPHATE DERIVATIVE” (DAIICHI SANKYO COMPANY, LIMITED, priority 2020, published 2024) come the findings set out here.

The target in one assay is human TLR4 (Homo sapiens, UniProt O00206+Q9Y6Y9). In words: Human TLR4 activating effect (HEK-Blue Human TLR4 Cells, SEAP reporter). Type of assay: cell-based. Conditions: 24 hours, SEAP Protein concentration. How it is done:
The human TLR4 activating effect was studied using the compounds described in Examples 1 to 17 and monophosphoryl lipid A as Comparative Example A.
Triethanolamine was dissolved at 0.5% (v/v) in injectable distilled water to prepare an aqueous triethanolamine solution. 1 mg of each test drug was dissolved in 0.98 mL of the aqueous triethanolamine solution, and pH of the solution was then adjusted to 7.2 to 7.4 by the addition of 20 μL of 1 M HCl to prepare a 1 mg/mL solution. A dilution series of the test drug was prepared using a medium [DMEM (Nacalai Tesque, Inc.), 10% FBS (Sigma-Aldrich Co. LLC), 50 U/mL penicillin-50 μg/mL streptomycin (Thermo Fisher Scientific Inc.), 1×HEK-Blue Selection (InvivoGen), and 100 μg/mL Normocin (InvivoGen)]. 2×10^5 cells/mL HEK-Blue™ Human TLR4 Cells (InvivoGen) were inoculated to each well of a 96-well microplate for tissue culture (Iwaki), then treated with the test drug, and cultured at 37° C. for 24 hours under 5% CO2. The cells thus cultured were centrifuged at 400×g at 4° C. for 3 minutes. Recombinant SEAP Protein (InvivoGen) was used for a calibration curve. After addition of 180 μL of QUANTI-Blue (InvivoGen) to each well of 96 Well TC-Treated Microplates (Corning, Inc.), 20 μL each of the cell culture supernatant and a standard diluting solution was added to each well, and the plate was left standing at 37° C. for 4 hours. After reaction, absorbance (wavelength: 655 nm) was measured using a microplate reader (PerkinElmer, Inc., EnSpire), and a SEAP Protein concentration was calculated from the calibration curve and used as an index for TLR4 agonist activity. A drug concentration that induced reaction corresponding to 50% of the maximum reaction was calculated as EC50 (ng/mL) from a linear expression using two drug concentrations between which the drug concentration that induced reaction corresponding to 50% of the maximum reaction in each experiment was positioned, and measured values thereof.

The subject of the next assay is SARS-CoV-2 RBD. The conditions noted are these: mouse, in vivo.
Assay [1] concerns various allergens (Japanese cedar pollen, mite, ragweed, timothy, peanut, milk). Put plainly: Immunostimulatory effect on various allergens by sublingual administration (allergen-specific IgG titer). Type of assay: in vivo, mouse. The conditions noted are these: allergen-sensitized mice, sublingual with allergen, up to 12 weeks; all the allergens; compared with allergen alone. The method, then: The compound described in Example 2(2e) was used to study its immunostimulatory effect on various allergens by sublingual administration.
Japanese cedar pollen antigen extracts were prepared by treating Japanese cedar pollen (Yamizo Pollen Study Group) with a solution containing 0.125 M NaHCO3 and 0.5 M NaCl for 24 hours (4° C.), and then insoluble matter was removed by filtration. The concentration of Cry j 1 contained in the extracts was measured, and the extracts were diluted into 12.5 μg/mL (10000 JAU/mL). Allergen scratch extracts (Torii Pharmaceutical Co., Ltd.) were used as mite, ragweed, timothy, peanut, and milk. Allergen sensitization was performed by intramuscularly administering the allergen (20 μL) to the mouse femoral region 1 week before the start of sublingual administration. The allergen scratch extracts of mite, ragweed, timothy, peanut, or milk were diluted 10-fold with PBS and used in allergen sensitization. Sublingual administration was started from 1 week after sensitization. […]
Each allergen was added at 25 μL/well (Japanese cedar pollen, 1 μg Cry j 1/mL; mite, ragweed, timothy, peanut, and milk, 1:1000 diluted) to a plate for ELISA, which was then left standing overnight at 4° C. […] Then, 30 μL of a TMB stop solution was added to each well, and absorbance at 450 nm was measured. […]

[2] abbreviates: read-out: EC50 (ng/ml) (converted).

Like-named read-outs stand apart in the source and are kept apart here.

Sequence of human TLR4 (O00206 24-839): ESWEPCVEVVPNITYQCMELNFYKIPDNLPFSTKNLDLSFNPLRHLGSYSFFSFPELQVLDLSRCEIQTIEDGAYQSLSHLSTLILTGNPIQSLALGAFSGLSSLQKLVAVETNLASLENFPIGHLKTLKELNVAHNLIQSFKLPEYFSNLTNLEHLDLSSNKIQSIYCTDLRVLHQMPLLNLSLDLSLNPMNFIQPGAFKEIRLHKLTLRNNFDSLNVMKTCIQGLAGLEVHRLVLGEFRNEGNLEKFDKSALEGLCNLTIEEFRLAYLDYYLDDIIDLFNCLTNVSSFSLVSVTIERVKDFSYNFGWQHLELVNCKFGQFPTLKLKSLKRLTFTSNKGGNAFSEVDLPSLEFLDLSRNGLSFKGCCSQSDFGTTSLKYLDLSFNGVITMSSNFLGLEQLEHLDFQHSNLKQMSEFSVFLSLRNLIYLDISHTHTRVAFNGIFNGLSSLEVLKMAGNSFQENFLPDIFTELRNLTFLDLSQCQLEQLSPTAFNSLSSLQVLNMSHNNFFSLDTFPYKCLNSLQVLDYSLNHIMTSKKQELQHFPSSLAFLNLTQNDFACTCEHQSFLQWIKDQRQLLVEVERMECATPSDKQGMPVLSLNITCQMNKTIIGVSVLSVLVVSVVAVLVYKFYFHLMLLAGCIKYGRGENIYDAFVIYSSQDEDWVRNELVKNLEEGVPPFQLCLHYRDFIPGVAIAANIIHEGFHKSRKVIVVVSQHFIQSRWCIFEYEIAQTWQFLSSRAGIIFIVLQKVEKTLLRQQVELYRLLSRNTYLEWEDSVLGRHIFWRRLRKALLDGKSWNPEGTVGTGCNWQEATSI
Sequence of human TLR4 (Q9Y6Y9 17-160 limits assumed): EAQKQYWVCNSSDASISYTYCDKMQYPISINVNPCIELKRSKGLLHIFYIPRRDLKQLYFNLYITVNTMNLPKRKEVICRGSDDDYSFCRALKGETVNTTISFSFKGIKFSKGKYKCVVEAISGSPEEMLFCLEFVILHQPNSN

Take `CCCCCCCCCCC[C@H](CC(=O)N[C@@H](CO[C@@H]1O[C@H](CO[C@]2(C(=O)O)C[C@@H](O)[C@@H](O)[C@@H]([C@H](O)CO)O2)[C@@H](OP(=O)(O)O)[C@H](OC(=O)C[C@@H](CCCCCCCCCCC)OC(=O)CCCCCCCCC)[C@H]1NC(=O)C[C@@H](CCCCCCCCCCC)OC(=O)CCCCCCCCC)CC(=O)O)OC(=O)CCCCCCCCC` [Example 2(2e), Ammonium (3R)-3-{[(3R)-3-(decanoyloxy)tetradecanoyl]amino}-4-({3-O-[(3R)-3-(decanoyloxy)tetradecanoyl]-2-{[(3R)-3-(decanoyloxy)tetradecanoyl]amino}-2-deoxy-6-O-(3-deoxy-α-D-manno-oct-2-ulopyranonosyl)-4-O-phosphono-β-D-glucopyranosyl}oxy)butanoate]: at human TLR4 (setting [2]), the EC50 is 0.0499 nM. Further, in the assay with SARS-CoV-2 RBD, the “anti-RBD IgA in blood” value is “markedly high”, the “anti-RBD IgA in nasal wash” value is given as “induced at a high level” and the “anti-RBD IgG in blood” value is recorded as “markedly high”. Further, the “allergen-specific IgG titer in blood” value in assay [1] is reported as “markedly higher”.
Regarding `CCCCCCCCCCC[C@H](CC(=O)NC1C(CC[C@@H](CC(=O)O)NC(=O)C[C@@H](CCCCCCCCCCC)OC(=O)CCCCCCCCC)OC(COC2(C(=O)O)CC(O)C(O)C([C@H](O)CO)O2)C(OP(=O)(O)O)C1OC(=O)C[C@@H](CCCCCCCCCCC)OC(=O)CCCCCCCCC)OC(=O)CCCCCCCCC` (stereo partly drawn) [Example 11(11d), Ammonium 6,10-anhydro-8-O-[(3R)-3-(decanoyloxy)tetradecanoyl]-3,7-bis{[(3R)-3-(decanoyloxy)tetradecanoyl]amino}-2,3,4,5,7-pentadeoxy-11-O-(3-deoxy-α-D-manno-oct-2-ulopyranonosyl)-9-O-phosphono-D-erythro-L-galacto-undecanoate], the EC50 at human TLR4 (setting [2]) is 0.291 nM.
The same measure, in the same setting: then `CCCCCCCCCCC[C@H](CC(=O)NC1C(CC[C@@H](CC(=O)O)NC(=O)C[C@@H](CCCCCCCCCCC)OC(=O)CCCCCCCCC)OC(CO)C(OP(=O)(O)O)C1OC(=O)C[C@@H](CCCCCCCCCCC)OC(=O)CCCCCCCCC)OC(=O)CCCCCCCCC` (stereo partly drawn) [Example 10(10r), Ammonium 6,10-anhydro-8-O-[(3R)-3-(decanoyloxy)tetradecanoyl]-3,7-bis{[(3R)-3-(decanoyloxy)tetradecanoyl]amino}-2,3,4,5,7-pentadeoxy-9-O-phosphono-D-erythro-L-galacto-undecanoate], with 0.667 nM; and `CCCCCCCCCCC[C@H](CC(=O)NC1C(CC[C@H](NC(=O)C[C@@H](CCCCCCCCCCC)OC(=O)CCCCCCCCC)C(=O)O)OC(COC2(C(=O)O)CC(OC3(C(=O)O)CC(O)C(O)C([C@H](O)CO)O3)C(O)C([C@H](O)CO)O2)C(OP(=O)(O)O)C1OC(=O)C[C@@H](CCCCCCCCCCC)OC(=O)CCCCCCCCC)OC(=O)CCCCCCCCC` (stereo partly drawn) [Example 15(15d), Ammonium 3-deoxy-α-D-manno-oct-2-ulopyranonosyl-(2-+4)-3-deoxy-α-D-manno-oct-2-ulopyranonosyl-(2-+10)-5,9-anhydro-7-O-[(3R)-3-(decanoyloxy)tetradecanoyl]-2,6-bis{[(3R)-3-(decanoyloxy)tetradecanoyl]amino}-2,3,4,6-tetradeoxy-8-O-phosphono-D-erythro-L-galacto-decanoate], with 0.4 nM.
Take “monophosphoryl lipid A [Comparative Example A, reference compound]”: the “EC50” value on human TLR4 is above 0.01 µg/mL.
With `CCCCCCCCCCC[C@H](CC(=O)N[C@H]1[C@H](OC[C@H](NC(=O)C[C@@H](CCCCCCCCCCC)OC(=O)CCCCCCCCC)C(=O)O)O[C@H](CO[C@]2(C(=O)O)C[C@@H](O)[C@@H](O)[C@@H]([C@H](O)CO)O2)[C@@H](OP(=O)(O)O)[C@@H]1OC(=O)C[C@@H](CCCCCCCCCCC)OC(=O)CCCCCCCCC)OC(=O)CCCCCCCCC` [Example 4(4d), Ammonium (2S)-2-{[(3R)-3-(decanoyloxy)tetradecanoyl]amino}-3-({3-O-[(3R)-3-(decanoyloxy)tetradecanoyl]-2-{[(3R)-3-(decanoyloxy)tetradecanoyl]amino}-2-deoxy-6-O-(3-deoxy-α-D-manno-oct-2-ulopyranonosyl)-4-O-phosphono-β-D-glucopyranosyl}oxy)propanoate], the EC50 on human TLR4 (setting [2]) is 0.328 nM.
Still for that read-out and setting: then `CCCCCCCCCCC[C@H](CC(=O)NC1C(CC[C@@H](CC(=O)O)NC(=O)C[C@@H](CCCCCCCCCCC)OC(=O)CCCCCCCCC)OC(COC2(C(=O)O)CC(OC3(C(=O)O)CC(O)C(O)C([C@H](O)CO)O3)C(O)C([C@H](O)CO)O2)C(OP(=O)(O)O)C1OC(=O)C[C@@H](CCCCCCCCCCC)OC(=O)CCCCCCCCC)OC(=O)CCCCCCCCC` (stereo partly drawn) [Example 12(12d), Ammonium 3-deoxy-α-D-manno-oct-2-ulopyranonosyl-(2-+4)-3-deoxy-α-D-manno-oct-2-ulopyranonosyl-(2-+11)-6,10-anhydro-8-O-[(3R)-3-(decanoyloxy)tetradecanoyl]-3,7-bis{[(3R)-3-(decanoyloxy)tetradecanoyl]amino}-2,3,4,5,7-pentadeoxy-9-O-phosphono-D-erythro-L-galacto-undecanoate], with 0.67 nM; and `CCCCCCCCCCC[C@H](CC(=O)NC1C(CC[C@H](NC(=O)C[C@@H](CCCCCCCCCCC)OC(=O)CCCCCCCCC)C(=O)O)OC(CO)C(OP(=O)(O)O)C1OC(=O)C[C@@H](CCCCCCCCCCC)OC(=O)CCCCCCCCC)OC(=O)CCCCCCCCC` (stereo partly drawn) [Example 13(130), Ammonium 5,9-anhydro-7-O-[(3R)-3-(decanoyloxy)tetradecanoyl]-2,6-bis{[(3R)-3-(decanoyloxy)tetradecanoyl]amino}-2,3,4,6-tetradeoxy-8-O-phosphono-D-erythro-L-galacto-decanoate], with 1.61 nM.
